Assay results: US4920134A, “2-O-pyrimidinyl glycerol derivatives” (Takeda Chemical Industries, Ltd., priority 1987, dated 1990)

Columns and labels:
[1] = system: Sarcoma 180 cells; assay: Antitumor activity in ICR mice inoculated with Sarcoma 180 cells; type: in vivo; settings: Sarcoma 180, ICR mice, i.p., 0.33 mg/mouse; for life-span prolongation ratio T/C: 3 times (1 hour, 1 day, 2 days after inoculation), calculated only on survival days of died mice; for No. of survivors/No. of tested animals: 3 times, on the 60th day
Description: (§1) Antitumor activity of compounds in Examples
ICR mice were intraperitoneally inoculated with 1×10^5 Sarcoma 180 cells per mouse, and then intraperitoneally given 0.33 mg/mouse of a compound of Examples dissolved in physiological saline, three times in total, i.e. 1 hour, 1 day and 2 days after the inoculation. The life-span prolongation ratio* (T/C %) against the control group without medication and the number of surviving mice on the 60th day are shown in Table 2.
*Calculated only on the survival days of died mice.

[2] = system: murine breast cancer MM46 cells; assay: Antitumor activity in C3H mice inoculated with murine breast cancer MM46 cells; type: in vivo, C3 H mice; settings: i.p., 0.25 mg/mouse per administration; for life-span prolongation ratio T/C: once a day for 4 days from 2nd day, calculated only on survived days of died mice; for No. of survivors/No. of tested animals: once a day for 4 days, on the 60th day
Excerpt: as §1
C3 H mice were intraperitoneally inoculated with 1×10^4 murine breast cancer MM46 cells, and then intraperitoneally given a compound of Examples dissolved in physiological saline once a day for 4 days from the 2nd day after the inoculation. The life-span prolongation ratio* (T/C %) against the control group without medication and the number of surviving mice on the 60th day are shown in Table 3.
*Calculated only on the survived days of died mice

[3] = system: HL-60 cells; assay: Proliferation-inhibitory effect against human myelocytic leukemia HL-60 cells ([3H]thymidine incorporation); type: cell-based; settings: 20 h + 4 h with [3H]thymidine, 37° C.
Description: Proliferation-inhibitory effect (IC50) of compounds in Examples against human myelocytic leukemia HL-60 cells HL-60 cells (human leukemia cell line) were suspended in GIT medium (Wako Pure Chemicals) containing a test compound to a concentration of 2×10^5 cells/ml, and 0.2 ml of the suspension was transferred to each well of a microwell plate having 96 wells. […] To determine the amount of thymidine incorporated into the cells, an acid-insoluble fraction was collected by a glass filter, and the radioactivity was measured by a liquid scintillation counter. The concentration of the drug which was required for 50% reduction of incorporated radioactivity from that of the control group without medication was taken as the IC50 value of the compound.

[4] = system: P388 cells; assay: Antitumor activity in CDF1 mice inoculated with P388 cells; type: in vivo; settings: i.p., 0.5 mg/mouse, twice (1 hour and 5 days after inoculation)
Description: CDF1 mice (5 heads per group) were intraperitoneally inoculated with 1×10^6 P388 cells per mouse, and then intraperitoneally given 0.5 mg/mouse of the compound in Example 2 dissolved in physiological saline, twice in total, i.e. 1 hour and 5 days after the inoculation. The life-span prolongation ratio (T/C %) against the control group without medication was 151%.

IC50 [3] [µg/mL] | Compound | life-span prolongation ratio T/C [2] [%] | No. of survivors/No. of tested animals [2] | also measured
0.63 | CCCCCCCCCCCCCCCCCCOCC(COCCOCC[n+]1cccc(C(N)=O)c1)Oc1ncccn1.[Cl-] (stereo not shown) [Example 5, 3-Carbamoyl-1-[2-[2-[3-octadecyloxy-2-(pyrimidin-2-yloxy)propoxy]ethoxy]ethyl]pyridinium chloride] |  |  | 
1.25 | CCCCCCCCCCCCCCCCCCOCC(COCCOCC[n+]1ccc(C(C)(C)C)cc1)Oc1ncccn1 (stereo not shown) [Example 8, 4-t.-Butyl-1-[2-[2-[3-octadecyloxy-2-(pyrimidin-2-yloxy)propoxy]ethoxy]ethyl]pyridinium chloride] |  |  | 
0.63 | CCCCCCCCCCCCCCCCCCOCC(COCCOCC[n+]1ccn(C)c1)Oc1ncccn1.[Cl-] (stereo not shown) [Example 10, 1-Methyl-3-[2-[2-[3-octadecyloxy-2-(pyrimidin-2-yloxy)propoxy]ethoxy]ethyl]imidazolium chloride] |  |  | 
1.25 | CCCCCCCCCCCCCCCCCCOCC(COCCOCC[N+](C)(C)C)Oc1ccncn1.[Cl-] (stereo not shown) [Example 11, N-2-[2-[3-Octadecyloxy-2-(pyrimidin-4-yloxy)propoxy]ethoxy]ethyl-N,N,N-trimethylammonium chloride] |  |  | 
2.5 | CCCCCCCCCCCCCCCCCCOCC(COCCOCC[n+]1cccc(C(N)=O)c1)Oc1ccncn1.[Cl-] (stereo not shown) [Example 12, 3-Carbamoyl-1-[2-[2-[3-octadecyloxy-2-(pyrimidin-4-yloxy)propoxy]ethoxy]ethyl]pyridinium chloride] |  |  | 
2.5 | CCCCCCCCCCCCCCCCCCOCC(COCCOCCOCC[N+](C)(C)C)Oc1ncccn1.[Cl-] (stereo not shown) [Example 14, N-2-[2-[2-[3-Octadecyloxy-2-(pyrimidin-2-yloxy)propoxy]ethoxy]ethoxy]ethyl-N,N,N-trimethylammonium chloride] |  |  | 

The remaining lines, values behind:

Compound | IC50 [3] [µg/mL] | life-span prolongation ratio T/C [2] [%] | No. of survivors/No. of tested animals [2] | also measured
CCCCCCCCCCCCCCCCCCOCC(COCCOCC[N+](C)(C)C)Oc1ncccn1.[Cl-] (stereo not shown) [Example 1, N-2-[2-[3-Octadecyloxy-2-(pyrimidin-2-yloxy)propoxy]ethoxy]ethyl-N,N,N-trimethylammonium chloride] | 0.63 | 160 | 4/5 | life-span prolongation ratio T/C [1]: 200%; No. of survivors/No. of tested animals [1]: 0/5
CCCCCCCCCCCCCCCCCCOCC(COCCOCC[N+](C)(C)C)Oc1ccc(Cl)nn1 (stereo not shown) [Example 2, N-[2-[2-[2-(3-Chloropyridazine-6-yloxy)-3-octadecyloxy]propoxy]ethoxy]ethyl-N,N,N-trimethylammonium chloride] | 1.25 | 174 | 1/5 | life-span prolongation ratio (T/C %) [4]: 151%
CCCCCCCCCCCCCCCCCCOCC(COCCOCC[N+](C)(C)C)Oc1cccnn1.[Cl-] (stereo not shown) [Example 3, N-[2-[2-[3-Octadecyloxy-2-(pyridazin-3-yloxy)propoxy]ethoxy]ethyl]-N,N,N-trimethylammonium chloride] | 0.32 |  |  | life-span prolongation ratio T/C [1]: 269%; No. of survivors/No. of tested animals [1]: 0/5
CCCCCCCCCCCCCCCCCCOCC(COCCOCC[n+]1ccsc1)Oc1ncccn1.[Cl-] (stereo not shown) [Example 4, 3-[2-[2-[3-Octadecyloxy-2-(pyrimidin-2-yloxy)propoxy]ethoxy]ethyl]thiazolium chloride] | 2.5 |  |  | life-span prolongation ratio T/C [1]: 244%; No. of survivors/No. of tested animals [1]: 0/4
CCCCCCCCCCCCCCCCCCOCC(COCCOCC[n+]1cccc(C(=O)[O-])c1)Oc1ncccn1 (stereo not shown) [Example 6, 1-[2-[2-[3-Octadecyloxy-2-(pyrimidin-2-yloxy)propoxy]ethoxy]ethyl]pyridinio-3-carboxylate] |  | 121 | 4/5 | 
CCCCCCCCCCCCCCCCCCOCC(COCCOCC[n+]1cccc(O)c1)Oc1ncccn1.[Cl-] (stereo not shown) [Example 9, 3-Hydroxy-1-[2-[2-[3-octadecyloxy-2-(pyrimidin-2-yloxy)propoxy]ethoxy]ethyl]pyridinium chloride] |  | 132 | 1/3 | 
